# Molecular target: T1, Stat3-DNA (hSIE) complexes (Homo sapiens, UniProt P40763)
# T1 construct: high salt extracts were prepared from HepG2 cells incubated without or with IL-6 (30 ng/ml) for 30 minutes; endogenous in cells; host or cells: HepG2 (IL-6-stimulated), whole-cell high-salt extract
# Assay: Electrophoretic mobility shift assay (EMSA), Stat3:hSIE DNA binding
# Type: biochemical
# Conditions: 300 μM, extracts of IL-6-stimulated HepG2 cells
# Procedure: Electrophoretic mobility shift assays were performed using whole-cell extracts prepared from HepG2 cells without and with stimulation with IL-6 (30 ng/ml) for 30 min. Protein (20 μg) was incubated with radiolabeled duplex oligonucleotide (hSIE) and DMSO without or with the indicated compounds (300 uM) for 60 minutes at 37° C. then separated by PAGE. The gel was dried and autoradiographed; the portion of the gel corresponding to the Stat3-bound hSIE band is shown. Data shown are representative of 2 studies.
# Electrophoretic Mobility Shift Assay (EMSA): EMSA was performed using the hSIE radiolabeled duplex oligonucleotide as a probe as described (Tweardy et al., 1995). Briefly, high salt extracts were prepared from HepG2 cells incubated without or with IL-6 (30 ng/ml) for 30 minutes. Protein concentration was determined by Bradford Assay and 20 ug of extract was incubated with compound (300 uM) for 60 minutes at 37 °C. […] Gels were dried and autoradiographed.
# Once in the nucleus, Stat3 dimers bind to specific DNA elements to activate and, in some instances, repress gene transcription. […] Compounds that bind to the phosphopeptide-binding site of Stat3 might be expected to do the same. […]
# T1 sequence (P40763 2-770 limits assumed, one chain of several): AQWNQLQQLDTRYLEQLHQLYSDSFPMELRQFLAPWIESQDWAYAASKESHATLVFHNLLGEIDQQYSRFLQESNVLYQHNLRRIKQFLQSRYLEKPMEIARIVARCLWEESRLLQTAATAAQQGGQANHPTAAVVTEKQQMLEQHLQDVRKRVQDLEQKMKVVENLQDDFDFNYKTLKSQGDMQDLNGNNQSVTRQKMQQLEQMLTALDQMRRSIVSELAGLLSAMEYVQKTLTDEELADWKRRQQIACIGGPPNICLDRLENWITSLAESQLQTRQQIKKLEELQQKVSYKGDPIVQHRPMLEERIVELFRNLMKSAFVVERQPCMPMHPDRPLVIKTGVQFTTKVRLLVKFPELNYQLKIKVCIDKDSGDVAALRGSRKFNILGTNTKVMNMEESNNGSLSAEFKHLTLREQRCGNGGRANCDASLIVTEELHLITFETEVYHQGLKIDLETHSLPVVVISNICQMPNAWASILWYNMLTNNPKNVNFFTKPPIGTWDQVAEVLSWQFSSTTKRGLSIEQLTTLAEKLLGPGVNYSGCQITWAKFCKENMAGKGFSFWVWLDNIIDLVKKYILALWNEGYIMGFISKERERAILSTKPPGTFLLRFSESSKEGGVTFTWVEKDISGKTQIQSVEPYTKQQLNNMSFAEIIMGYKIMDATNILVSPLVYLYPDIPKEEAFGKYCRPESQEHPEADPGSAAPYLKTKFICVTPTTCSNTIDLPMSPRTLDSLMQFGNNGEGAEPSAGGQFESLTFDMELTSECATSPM
smiles,measurement,value
"O=C(O)c1ccc(C=CC(=O)c2ccc3c(c2)OCCO3)cc1 [Cpd3, 4-[3-(2,3-dihydro-1,4-benzodioxin-6-yl)-3-oxo-1-propen-1-yl]benzoic acid]",Stat3:hSIE band intensity (amount of hSIE shifted),reduced the amount of hSIE shifted by half or greater

# Reference: patent publication US20150031714A1, “METHODS AND COMPOSITIONS FOR PREVENTION OF ALLERGIC REACTION” (Baylor College of Medicine, priority 2013, published 2015)
